# From ChEMBL document CHEMBL2094269, “WEHI/Eskitis Trypanosoma b. brucei screening data”
# How the values were obtained:
# [1] = DNDI: Cytotoxicity against human MRC-5 lung fibroblast cells.; conditions: IC50
# [2] = system: Trypanosoma brucei brucei; assay: microbe, parasite or virus in culture; type: functional, organism-based, STIB 795
# Description: DNDI: Inhibition of Human African Trypanosomiasis (HAT), STIB 795, in vitro
"IC50 ([2]; Trypanosoma brucei, STIB 795)",IC50 [2],Structure (SMILES),IC50 [1]
0.831 µM,–,CCCCN1/C(=C/c2cc[n+](CC)c3ccccc23)C=Cc2cc(C)ccc21,> 10.4 µM
5.68 µM,–,COc1ccccc1C(NC(=O)c1ccccc1)c1ccc2cccnc2c1O (centres undefined),> 10.4 µM
2.31 µM,–,COCc1cc(CN2CCN(c3ccccc3OC)CC2)c(O)c2ncccc12,1.58 µM
0.269 µM,–,Cc1ccc(/C(=C\CCNCCN)c2ccccc2)cc1,> 20.8 µM
1.01 µM,–,O=C1CN(Cc2ccccc2)c2ccccc2N1,8.3 µM
≤ 2.78 µM,–,NC1=NC(CCc2ccccc2)N(OCCCc2ccccc2)C(N)=N1 (centres undefined),> 4.17 µM
1.45 µM,–,Cc1cccc2cc(-c3ccccc3)c(N3CCNCC3)nc12,> 4.17 µM
5.13 µM,–,CCc1ccccc1-n1c(=O)oc2ccc(Cl)cc2c1=O,> 4.17 µM
1.2 µM,–,O=C(Nc1c2ccccc2nc2ccccc12)c1ccncc1,5.82 µM
44.4 µM,–,O=C(N/N=C/c1cc(I)ccc1O)c1ccccc1O,> 4.17 µM
3.63 µM,–,CCc1ccccc1Nc1nc(-c2ccc(O)cc2O)cs1,> 41.7 µM
1.66 µM,–,Cc1nc2ncnn2c(Sc2ccccc2NC(=O)c2cccc(F)c2)c1C,> 20.8 µM
2.73 µM,–,c1coc(CNc2c3ccccc3nc3ccccc23)c1,> 4.17 µM
1.28 µM,–,CN(C)CCOc1ccccc1C1NCCc2c1[nH]c1ccccc21 (centres undefined),> 20.8 µM
5.28 µM,–,C=CC[n+]1ccc(/C=C/c2ccccc2O)c2ccccc21,> 41.7 µM
5.46 µM,–,CC(C)NCC(O)COc1cccc2c(=O)c3ccccc3sc12 (centres undefined),> 20.8 µM
5.39 µM,–,CN(C)CCCNc1nn2c(=O)c3ccccc3nc2c2ccccc12,> 4.17 µM
5.64 µM,–,Cc1ccccc1OCCn1c(=N)n(CC(C)C)c2ccccc21,> 20.8 µM
2.58 µM,–,CC(C)Nc1ccc(Nc2ccnc3cc4ccccc4cc23)cc1,> 41.7 µM
5.41 µM,–,CC[n+]1c(/C=C2\Sc3cc(NC(C)=O)ccc3N2C)ccc2ccccc21,> 41.7 µM
5.25 µM,5.23 µM,O=C1Nc2ccccc2/C1=C/c1ccccn1,> 20.8 µM
7.04 µM,–,COc1ccc(-c2nc(Nc3ccc(F)cc3F)c3ccccc3n2)cc1OC,> 41.7 µM
1.2 µM,–,O=C(c1ccccc1)c1ccc(O)c(O)c1,> 41.7 µM

# Second part, the compound before the results:
Structure (SMILES),"IC50 ([2]; Trypanosoma brucei, STIB 795)",IC50 [2],IC50 [1]
COc1cc2nc(N(C)C)nc(N)c2cc1OC,5.21 µM,–,> 20.8 µM
N#Cc1ccccc1N=NNc1ccccc1C#N,5.08 µM,–,> 41.7 µM
CC(C)(C)C(N)CCc1ccc(Cl)cc1Cl (centres undefined),5.49 µM,–,> 41.7 µM
C=CCn1c(-c2cccs2)nn(C2CC(=O)C3OCC2O3)c1=S (centres undefined),4.75 µM,4.4 µM,> 20.8 µM
CC(C)(C)C1CCc2nc(N)nc(N)c2C1 (centres undefined),≤ 3.36 µM,–,> 4.17 µM
COc1ccc(-c2cs/c(=N\CC3CCNCC3)n2-c2ccccc2)cc1,5.74 µM,–,> 20.8 µM
Oc1cccc2ccc(CNC3CC3)nc12,5.36 µM,–,> 20.8 µM
CC(=O)NC1=C(Br)C(=O)c2cccc(NC(C)=O)c2C1=O,1.15 µM,–,7.49 µM
Cc1cc(C)n(-c2ccc3c(Cl)cc(Cl)c(O)c3n2)n1,4.79 µM,–,> 41.7 µM
N=C(NOC(=O)N1CCOCC1)c1ccccc1,1.19 µM,–,> 4.17 µM
CCOC(=O)c1cnc2c(OC)cccc2c1NCCCO,8.61 µM,–,> 41.7 µM
CC(C)=C1C2CCC1C1C(=O)N(NC(=O)C(C)Oc3ccc(C)c(C)c3)C(=O)C21 (centres undefined),5.39 µM,–,> 41.7 µM
CC1(C)CC(=O)C/C(=N\NC(=O)c2sc3ccccc3c2Cl)C1,2.2 µM,–,> 41.7 µM
CCc1cc(C2CCCN2C(=O)c2c(F)cccc2Cl)on1 (centres undefined),5.12 µM,–,> 41.7 µM
CCC1(C)CC(CCNCc2ccccc2O)(c2ccc(F)cc2)CCO1 (centres undefined),4.73 µM,–,> 41.7 µM
c1ccc2c(c1)CC1CNCc3cccc(c31)S2 (centres undefined),5.59 µM,–,> 41.7 µM
COc1ccc(C(=O)O/N=C(\N)c2ccccn2)c(OC)c1,4.49 µM,–,> 20.8 µM
CCN(CC)CCNc1cc(C)nc2c1C(=O)C(=O)C=C2N1CCCCC1,4.07 µM,–,6.25 µM
CCCC(=O)Nc1ccc(Cl)c(-c2nc3ncccc3o2)c1,0.851 µM,–,> 41.7 µM
CC(C)OCc1cc(CN2CCOCC2)c(O)c2ncccc12,0.498 µM,–,0.91 µM
Oc1c(Br)cc(CN2CCOCC2)c2cccnc12,1.1 µM,–,> 20.8 µM
c1ccc(COc2ccc(-c3cc(C4CCNCC4)[nH]n3)cc2)cc1,1.95 µM,–,> 10.4 µM
CC(C)NCC(O)CNc1cccc2c1C(=O)c1ccccc1C2=O (centres undefined),3.42 µM,–,> 4.17 µM
CC(C)(C)c1ccc(C(=O)O/N=C(\N)c2ccncc2)cc1,0.95 µM,–,> 41.7 µM
Cc1cccc(C)c1C(OCC1CN(C(C)C)C(C)(C)O1)c1c(C)cccc1C (centres undefined),4.93 µM,–,> 20.8 µM
CNCCC(Sc1ccc(C(F)(F)F)cc1)c1ccccc1 (centres undefined),1.9 µM,–,> 20.8 µM
Oc1c(C(Nc2ccccn2)c2ccc(C(F)(F)F)cc2)ccc2cccnc12 (centres undefined),3.26 µM,–,> 41.7 µM

Structure (SMILES),"IC50 ([2]; Trypanosoma brucei, STIB 795)",IC50 [2],IC50 [1]
CCOC(=O)c1ccc(CN2C(=O)C(=O)c3cc(OC(F)(F)F)ccc32)o1,4.03 µM,–,> 20.8 µM
c1ccc2cc3c(NCCCNC4CCCCC4)ccnc3cc2c1,0.294 µM,–,4.93 µM
CC(C)/C(N)=N/OC(=O)c1ccc(I)cc1,0.808 µM,–,> 41.7 µM
CN1CCN(C2Cc3ccc(F)cc3Sc3ccc(O)cc32)CC1 (centres undefined),2.61 µM,–,> 41.7 µM
COC(=O)c1[nH]cc2c3cccnc3c3ncccc3c12,0.064 µM,–,0.59 µM
Cc1ccc2[nH]c(/C(C#N)=C/c3ccc(O)c(O)c3)nc2c1,1.51 µM,–,> 20.8 µM
Cc1cc(C)c(OCCCCCCN2CCNCC2)c(Br)c1,1.02 µM,–,> 20.8 µM
C/C(CC(C)(C)C1CCCCC1)=N/NC(N)N,1.4 µM,–,> 4.17 µM
CC1(C)CC(N2COc3c(cc(Cl)c4cccnc34)C2)CC(C)(C)N1,5.53 µM,–,> 20.8 µM
S=c1c(Cl)c(Cl)cnn1-c1ccccc1,6.17 µM,–,> 20.8 µM
N#C/C(=C\c1cccn1-c1ccc(S(N)(=O)=O)cc1)c1nc2ccccc2[nH]1,4.99 µM,–,> 41.7 µM
COC(=O)c1cn(NC(=O)c2ccccn2)c(=O)c2ccccc12,0.63 µM,–,> 10.4 µM
Cn1ccc(/C=C2/CCC/C(=C\c3ccn(C)n3)C2=O)n1,5.61 µM,–,> 20.8 µM
Cc1nnc(-c2cc(S(=O)(=O)NCc3ccc4c(c3)OCO4)c[nH]2)o1,5.42 µM,–,> 41.7 µM
Cc1[nH]c2ccccc2c1/C=C1\SC(=N)N(c2nccs2)C1=O,2.15 µM,–,> 20.8 µM
Clc1ccc(C(OCC2CCCCN2)c2ccc(Cl)cc2)cc1 (centres undefined),2.78 µM,–,> 4.17 µM
CC(Cc1ccco1)NC(=O)c1cccc(NC(=O)C2=CSCCO2)c1 (centres undefined),5.79 µM,–,> 41.7 µM
COC(=O)c1ccc(C2N=C(c3cccs3)CC(c3ccccc3O)N2)cc1 (centres undefined),5.51 µM,–,> 41.7 µM
O=C(NC(c1ccc2c(c1)OCO2)c1ccc2cccnc2c1O)c1ccccc1 (centres undefined),4.91 µM,–,> 4.17 µM
NC1=C(Cl)C(=O)c2ccccc2C1=O,2.44 µM,–,> 41.7 µM
O=C1CC(n2nnnc2-c2ccccc2)C2COC1O2 (centres undefined),2.18 µM,–,> 20.8 µM
Cc1cc(N2CCN(C)CC2)c2[nH]c3ccccc3c2c1,0.748 µM,–,7.26 µM
COc1ccc(C2=C(C)C(=O)C(C)=C(C)C2=O)cc1,5.55 µM,–,> 20.8 µM
Cc1cc(C2=CC(C)(C)NC(C)(C)C2)sc1C1=CC(C)(C)NC(C)(C)C1,4.82 µM,–,> 41.7 µM
COC(=O)C(NC(=O)c1c(Cl)sc2nnsc12)C(C)C (centres undefined),4.12 µM,–,> 4.17 µM
CS(=O)(=O)c1cccc(C(=O)Nc2nc(-c3ccccn3)cs2)c1,0.498 µM,–,> 10.4 µM
